Measurements from PubChem BioAssay (NCI).
Values joined by “and” are separate entries in the source; they are usually repeats but may differ in a detail not shown here. Equal entries are not always repeated.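 Interpolation was linear, between the two tested concentrations surrounding the appropriate level; five concentrations were tested over 48 hours in 96-well plates. Abbreviation: GI50, concentration required for 50% inhibition of growth. TGI marks complete inhibition of growth.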

Key:
Assay in all cases: NCI anticancer screen, dose series, 48 h
HT29 colon = tested on: HT29 colon
NCI/ADR-RES ovarian = tested on: NCI/ADR-RES ovarian
DU-145 prostate = tested on: DU-145 prostate
PC-3 prostate = tested on: PC-3 prostate
T-47D breast = tested on: T-47D breast
TK-10 renal = tested on: TK-10 renal
LOX IMVI melanoma = tested on: LOX IMVI melanoma
HOP-92 NSCLC = tested on: HOP-92 NSCLC
HCT-15 colon = tested on: HCT-15 colon
HCC-2998 colon = tested on: HCC-2998 colon

| Compound | GI50 (HT29 colon) | TGI (HT29 colon) | GI50 (NCI/ADR-RES ovarian) | TGI (NCI/ADR-RES ovarian) | GI50 (DU-145 prostate) | TGI (DU-145 prostate) | GI50 (PC-3 prostate) | TGI (PC-3 prostate) | GI50 (T-47D breast) | TGI (T-47D breast) | GI50 (TK-10 renal) | TGI (TK-10 renal) | GI50 (LOX IMVI melanoma) | TGI (LOX IMVI melanoma) | GI50 (HOP-92 NSCLC) | TGI (HOP-92 NSCLC) | GI50 (HCT-15 colon) | TGI (HCT-15 colon) | GI50 (HCC-2998 colon) | TGI (HCC-2998 colon) |
| --- | --- | --- | --- | --- | --- | --- | --- | --- | --- | --- | --- | --- | --- | --- | --- | --- | --- | --- | --- | --- |
| CC(C)[C@](O)(c1ccc2cc(OC(F)F)c(OC(F)F)cc2c1)c1cn[nH]n1 | 16 µM and 20.8 µM | 36.3 µM and 46.6 µM | 20.1 µM and 21.5 µM | 52.8 µM and 53.5 µM | 19.1 µM and 16.4 µM | 45.6 µM and 32 µM | 17.5 µM and 14.2 µM | 35.4 µM and 33.4 µM | 3.73 µM and 15.5 µM | 53.4 µM and 71.1 µM | 17 µM and 12.6 µM | 38.4 µM and 35.7 µM | 15.7 µM and 14.8 µM | 29.1 µM and 28.9 µM | 13.6 µM and 13.5 µM | 32.2 µM and 29.3 µM | 13.9 µM and 14.4 µM | 31.5 µM and 31.8 µM | 18.2 µM and 18.4 µM | 36.3 µM and 34.5 µM |
| CC(C)=CCN=C(N)N | – | > 100 µM | – | > 100 µM | – | > 100 µM | – | > 100 µM | – | > 100 µM | – | > 100 µM | – | > 100 µM | – | > 100 µM | – | > 100 µM | – | > 100 µM |
| COc1ccc(-c2[nH]ncc2-c2cc3c(c(OC)c2)OCC(=O)N3)cc1 | 0.378 µM | > 100 µM | 1.43 µM | 29.2 µM | 1.18 µM | > 100 µM | 0.538 µM | > 100 µM | 0.406 µM | 42.9 µM | 7.59 µM | > 100 µM | 0.522 µM | > 100 µM | 1.11 µM | 99.7 µM | 0.457 µM | > 100 µM | 1.14 µM | 27 µM |
| Cc1ccccc1NC(=S)Nc1ccccn1 | > 100 µM | > 100 µM | > 100 µM | > 100 µM | > 100 µM | > 100 µM | > 100 µM | > 100 µM | 55.7 µM | > 100 µM | > 100 µM | > 100 µM | > 100 µM | > 100 µM | 10.6 µM | > 100 µM | > 100 µM | > 100 µM | > 100 µM | > 100 µM |
| COC1=CC(c2ccc[nH]2)=N/C1=C\c1[nH]c(C)c(C(=O)OCc2ccccc2)c1C | 0.0359 µM | 1.27 µM | 0.0714 µM | 1.36 µM | 0.0917 µM | 1.92 µM | 0.112 µM | 20.6 µM | 0.252 µM | 1.6 µM | 0.0854 µM | 1.91 µM | 0.0189 µM | 0.042 µM | 0.0671 µM | 0.431 µM | 0.0333 µM | 1.09 µM | 0.087 µM | 1.71 µM |
| C[n+]1c(/C=C\C=C\N2CCCCC2)sc2ccccc21 | 0.321 µM | 11.7 µM | 37.6 µM | > 100 µM | 0.598 µM | 17.1 µM | 0.237 µM | 2.97 µM | 0.2 µM | 2.72 µM | 2.19 µM | 16.5 µM | 0.481 µM | 12.9 µM | 0.0758 µM | 2.16 µM | 10.9 µM | 49.2 µM | 0.451 µM | 14.1 µM |
| COc1ccc2c(c1)C(=O)c1c-2n(CCCN)c(=O)c2ccccc12 | < 0.0298 µM | 0.188 µM | 0.0992 µM | 1.95 µM | 0.0179 µM | 0.293 µM | 0.206 µM | 1.26 µM | < 0.0218 µM | 0.109 µM | 0.116 µM | 0.98 µM | 0.0102 µM | 0.0786 µM | 0.181 µM | 1.43 µM | 0.0179 µM | 0.265 µM | 0.164 µM | 1.18 µM |
| COC(=O)[C@@H](NC(=O)NC(=O)NC(=O)CI)C(C)C | 2.01 µM | 4.03 µM | 25.4 µM | 73 µM | 16.4 µM | 29.9 µM | 16.3 µM | 30.7 µM | 6 µM | 34.5 µM | 7.65 µM | 20.5 µM | 1.69 µM | 3.33 µM | 2.7 µM | 7.36 µM | 1.66 µM | 3.16 µM | 13.4 µM | 27.4 µM |
| CN1CCN(c2ccc(C(=O)Nc3n[nH]c4ccc(Cc5cc(F)cc(F)c5)cc34)c(NC3CCOCC3)c2)CC1 | 0.971 µM and 1.06 µM | 3.38 µM and 2.46 µM | 4.81 µM and 2.02 µM | > 10 µM and 4.54 µM | 4.22 µM and 1.65 µM | > 10 µM and 3.04 µM | 2.83 µM and 1.38 µM | > 10 µM and 2.99 µM | 1.99 µM | > 10 µM | 2.35 µM and 1.42 µM | > 10 µM and 2.78 µM | 1.35 µM and 1.34 µM | 2.7 µM and 2.69 µM | 0.446 µM and 1.04 µM | 3.03 µM and 2.4 µM | 1.87 µM and 1.32 µM | 6.67 µM and 2.93 µM | 1.49 µM and 1.59 µM | 3 µM and 3.18 µM |
| C=C1C(=O)O[C@H]2[C@H]1CC/C(CNC(=O)/C=C/c1ccc(Br)cc1)=C\CC[C@@]1(C)O[C@@H]21 | 0.622 µM | 2.66 µM | 2.59 µM | 10.5 µM | 0.743 µM | 2.02 µM | 1.47 µM | 3.24 µM | 1.74 µM | 4.73 µM | 1.24 µM | 2.58 µM | 0.594 µM | 1.86 µM | 0.659 µM | 2.26 µM | 0.519 µM | 1.88 µM | 1.56 µM | 3 µM |
| Nc1ccn(C2OC(CO)C(O)C2F)c(=O)n1 (centres undefined) | > 5000 µM | > 5000 µM | – | > 5000 µM | > 5000 µM | > 5000 µM | > 5000 µM | > 5000 µM | > 5000 µM | > 5000 µM | > 5000 µM | > 5000 µM | > 5000 µM | > 5000 µM | > 5000 µM | > 5000 µM | > 5000 µM | > 5000 µM | > 5000 µM | > 5000 µM |
| Cc1c2cnccc2c(C)c2c1c1cc(C3OCCCO3)ccc1n2C | 0.363 µM | 2.12 µM | 0.157 µM | 1.83 µM | 0.371 µM | 1.58 µM | 0.402 µM | 2.24 µM | 0.299 µM | 3.16 µM | 0.541 µM | 4.14 µM | 0.146 µM | 0.659 µM | 0.281 µM | 1.66 µM | 0.281 µM | 1.4 µM | 0.659 µM | 2.94 µM |
| CN(C)CCCOc1ccccc1NC1=C(Cl)C(=O)C(Nc2ccccc2OCCCN(C)C)=C(Cl)C1=O | 0.253 µM | 0.584 µM | 3.29 µM | 12.7 µM | 0.709 µM | 1.77 µM | 0.696 µM | 2.19 µM | 0.209 µM | 0.591 µM | 1.93 µM | 3.36 µM | 0.18 µM | 0.355 µM | 1.33 µM | 2.82 µM | 0.749 µM | 2.18 µM | 0.604 µM | 1.31 µM |
| Cc1c2cc[nH]c(=O)c2c(C)c2c1[nH]c1cc(OCCN3CCN(C)CC3)ccc12 | 0.432 µM | 2.03 µM | 3.37 µM | 16.3 µM | 0.813 µM | 8.97 µM | 1.03 µM | 7.48 µM | 0.782 µM | 15.2 µM | 2.73 µM | 13.7 µM | 0.484 µM | 1.9 µM | 0.798 µM | 5.46 µM | 1.88 µM | 12 µM | 1.26 µM | 7.24 µM |
| Cn1cc(-c2nonc2-c2c[nH]c3ccccc23)c2ccccc21 | 0.35 µM | 10.8 µM | 0.378 µM | 14 µM | 0.511 µM | 12.7 µM | 0.488 µM | 17.2 µM | 0.464 µM | 28.5 µM | 1.55 µM | 24.4 µM | 0.65 µM | 13 µM | 1.08 µM | 9.91 µM | 0.354 µM | 11.3 µM | 1.26 µM | 7.08 µM |
